The source of these data is PubChem BioAssay AID1996.

In brackets after ≈: the same amount, converted by molar mass.

For the series the following is noted: buffer; pH 7.4; 200.0 µM.
Usually solubility (kinetic) stands for the concentration staying in solution when a stock, usually in DMSO, is diluted into the medium. As to `CC1CCN(C(=O)c2ccc3c(c2)OCO3)CC1`, the kinetic solubility was 36.9 µg/mL (≈ 149 µM). Regarding `CC(=NCCN1CCCCC1)c1c(O)n(-c2ccccc2)c(=O)[nH]c1=O`, the kinetic solubility was greater than 53.5 µg/mL. Under `Cc1ccc(-c2nc3ncccc3n2O)cc1` stands greater than 33.8 µg/mL; under `CCCc1cc(=O)[nH]c(SCC(=O)Nc2ccc(C(=O)Nc3ccccc3OC)cc2)n1`, 6.7 µg/mL (≈ 14.8 µM); under `COc1ccc(CNc2nc3ccccc3n2C)c(OC)c1`, greater than 44.6 µg/mL. To `Cc1cnc(C(=O)N2CCN(c3ccc(C(F)(F)F)cn3)CC2)cn1` belongs 48 µg/mL (≈ 137 µM); to `CNC(=O)c1ccc(NC(=O)/C=C/c2cccc(F)c2)cc1`, 1.4 µg/mL (≈ 4.69 µM); to `Cc1nc(Cl)sc1C(=O)Nc1cccc(Cl)c1`, 34.8 µg/mL (≈ 121 µM). Turning to `CN(C)CCCCOc1ccccc1F.O=C(O)C(=O)O`, the solubility (kinetic) was determined as 17.2 µg/mL. This solubility kinetic lies about 2-fold lower than the previous one. To `CCc1nc2ccccc2c(C(=O)OCC(=O)Nc2ccc(NC(C)=O)cc2)c1C` belongs 12.1 µg/mL (≈ 29.8 µM); to `CCOC(=O)c1c(N)sc(C(=O)N(CC)CC)c1C`, greater than 42.7 µg/mL. In turn, `C[C@H](NC(=O)c1ccc2c(c1)OCO2)c1nnc2ccccn12` displayed a kinetic solubility greater than 46.5 µg/mL. To `Cc1ccnc(NC(=O)CCNS(=O)(=O)c2ccc(C)c(C)c2)c1` belongs 45.8 µg/mL (≈ 132 µM); to `CCOc1ccc2nc(NC(=O)c3ccco3)sc2c1`, 6.9 µg/mL (≈ 23.9 µM). Take `C[N+](C)(C)CCOc1ccc([N+](=O)[O-])cc1.[Br-]`: the kinetic solubility was greater than 45.8 µg/mL. Under `Cc1ccc(NC(=O)OCCNC(=O)OC(C)C)cc1` stands 33.1 µg/mL (≈ 118 µM); under `O=[N+]([O-])c1cnccc1NC1CCCCC1`, 29.1 µg/mL (≈ 132 µM); under `CCC(Oc1ccc(F)cc1)C(=O)N1CCCCCCC1` (stereo unspecified), 34.8 µg/mL (≈ 119 µM). Take `Cl.O=C(NCCN1CCOCC1)c1ccccc1OCc1ccccc1`: the solubility (kinetic) is greater than 56.5 µg/mL. To `CC(=O)OCc1ccccc1Sc1ccccc1C(=O)NCc1ccccc1` belongs 21.1 µg/mL (≈ 53.9 µM). Under `COc1ccccc1N1CCN(c2nc(C)cc(C)c2C#N)CC1` stands 10.4 µg/mL (≈ 32.3 µM); under `Cc1cccc(C)c1OCC(=O)Nc1cccc(C(=O)O)c1`, greater than 44.9 µg/mL; under `CC(C)N(Cc1nc(COc2ccccc2)no1)Cc1nccn1C`, 48.2 µg/mL (≈ 141 µM). To `CC(=O)Nc1ccc(/C=C/c2nc3ccccc3[nH]c2=O)cc1` belongs 27 µg/mL (≈ 88.4 µM); to `Cc1cc(C)cc(NC(=O)NCc2c(-c3ccccc3)noc2C)c1`, 0.8 µg/mL (≈ 2.39 µM). `Cc1ccc(/C=C2\C(=O)NC(=S)N(c3cccc(F)c3)C2=O)o1` returned a solubility (kinetic) of 43.1 µg/mL (≈ 130 µM). Under `O=C1Cc2ccccc2C(=O)N1c1ccccc1` stands 35.1 µg/mL (≈ 148 µM). Take `C=CCn1c(C)nc2c(sc3nc4c(cc32)COC(C)(C)C4)c1=O`: the kinetic solubility was greater than 51.2 µg/mL. Under `S=C(c1ccc(Br)cc1)N1CCCC1` stands greater than 40.5 µg/mL; under `Cc1cc(=O)c2cc(Br)ccc2n1CC(=O)NCc1ccccc1`, 1.3 µg/mL (≈ 3.37 µM). Under `COc1cc(NC(=S)Nc2ccc3c(c2)OCCO3)cc(OC)c1OC` stands greater than 56.5 µg/mL. To `COc1cc(NC(=S)NCCO)c(OC)cc1Cl` belongs greater than 43.6 µg/mL; to `N#Cc1ccc(OC(=O)Cc2ccsc2)cc1`, 35.5 µg/mL (≈ 146 µM); to `CCOc1ncccc1C(=O)Nc1c(C)n(C)n(-c2ccccc2)c1=O`, greater than 52.9 µg/mL. In turn, `COc1ccccc1NC(=S)NCc1ccc(F)cc1` yielded a solubility (kinetic) of 34 µg/mL (≈ 117 µM). `CC(C)(C)c1ccc2c(c1)N(CC(=O)N1CCCC1)C(=O)CO2`: the kinetic solubility is greater than 47.5 µg/mL.

`Cc1nc(C)c(C(=O)Nc2cccc(C)c2C)s1` yielded a solubility (kinetic) greater than 39.1 µg/mL. With `CC(=O)c1cccc(N=Cc2c(O)ccc3ccccc23)c1`, the solubility (kinetic) was 2.3 µg/mL (≈ 7.95 µM). Under `COc1ccc(CNC(=O)c2cc(SC)ccc2Cl)cc1OC` stands 49.1 µg/mL (≈ 140 µM); under `O=c1c([N+](=O)[O-])cccn1Cc1cccc(Cl)c1`, greater than 39.7 µg/mL; under `CCOC(=O)c1ccc(Nc2cc(C)nc(-c3ccccc3)n2)cc1`, less than 0.2 µg/mL.

For the molecule `O=C(Nc1nc2cc3c(cc2s1)OCCO3)c1cccs1`, the kinetic solubility amounted to 0.6 µg/mL (≈ 1.88 µM). Under `CC(NCc1cccc(S(=O)(=O)N(C)C)c1)c1ccc(F)cc1` (stereo unspecified) stands 37.1 µg/mL (≈ 110 µM). Under `Cc1ccc(NC(=O)OCc2cncs2)cc1` stands greater than 37.2 µg/mL.

For the molecule `Cc1ccc(N2C(=O)CC(N3CCc4ccccc43)C2=O)cc1Cl` (stereo unspecified), the solubility (kinetic) was less than 0.4 µg/mL. Under `Cc1ccc2c(c1)N(Cc1cccc(F)c1)C(=O)C(C)O2` (stereo unspecified) stands 12.7 µg/mL (≈ 44.5 µM).

Take `CCCOCc1ccc(O)c2ncccc12`: the kinetic solubility was found to be 19.6 µg/mL (≈ 90.2 µM). To `CNC(=O)NC(O)C(Cl)(Cl)Cl` (stereo unspecified) belongs 33.1 µg/mL (≈ 149 µM). For `Nc1ccc(C(=O)O)cc1`, the kinetic solubility was greater than 20.6 µg/mL. To `O=C(N/N=C/c1ccco1)c1ccc2nc[nH]c2c1` belongs greater than 38.1 µg/mL. In the case of `COc1ccc(OC)c2c(C)cc(N3CCCCCC3)nc12`, the solubility (kinetic) worked out at 6.3 µg/mL (≈ 21 µM).

Molecule `O=C(NCCCCNC(=O)c1ccccn1)c1ccccn1` gave a kinetic solubility greater than 44.8 µg/mL. The molecule `CCC(=O)N1CCN(c2ccc(NC(=O)c3ccc4ccccc4c3)cc2)CC1` displayed a solubility (kinetic) of less than 0.3 µg/mL. To `Cc1cc(=O)[nH]c(SCC(=O)Nc2ccc3c(c2)CCC3)c1C#N` belongs 17.7 µg/mL (≈ 52.1 µM); to `CC(=O)c1ccc(NC(=O)CN2CCCC2)cc1`, greater than 36.9 µg/mL. As for `Br.C1=C(c2ccco2)N2CCN=C2S1`, the kinetic solubility was 38.8 µg/mL. To `COc1ccccc1CCC(=O)NNC(=O)c1ccncc1` belongs greater than 44.9 µg/mL; to `O=C(NC1CCCCC1)c1c2c(nc3ccccc13)CCC2`, 25.9 µg/mL (≈ 88 µM); to `CN(Cc1nc(-c2cccc(Cl)c2)no1)C1CCOCC1`, 36.9 µg/mL (≈ 120 µM). For `Nc1ccccc1C(=O)NCCN1CCNC1=O`, the solubility (kinetic) stood at 14.2 µg/mL (≈ 57.2 µM). To `CC(=O)Nc1ccc2c(c1)CCCC2` belongs greater than 28.4 µg/mL; to `COc1ccc2c(c1)C1=C(CC2)C(c2ccc(C)cc2)NC(=S)N1` (stereo unspecified), 10.5 µg/mL (≈ 31.2 µM); to `CC(C)(C)C(=O)Cn1ncc(N2CCOCC2)c(Cl)c1=O`, greater than 47.1 µg/mL. On to `CCOC(=O)N1CCN(C(=O)C(C)c2ccc([N+](=O)[O-])cc2)CC1` (stereo unspecified), for which the solubility (kinetic) is greater than 50.3 µg/mL. To `CCCCCC1=NN2C(=O)CC(=O)N=C2S1` belongs greater than 35.9 µg/mL; to `Cc1cc(C)cc(NC(=O)COC(=O)c2cc(C)oc2C)c1`, less than 0.6 µg/mL; to `O=C1CNC(=S)N1CCCc1ccccc1`, greater than 35.1 µg/mL.

With `CC1CCN(C(=O)CSc2nc(C3CC3)nc3ccccc23)CC1`, the kinetic solubility was greater than 51.2 µg/mL. Under `Oc1ccc(Cl)cc1C=Nc1ccc(Br)cc1` stands 21.4 µg/mL (≈ 68.9 µM); under `O=C(Cn1c(=O)n(CC2CS2)c2ccccc21)N1CCCCCC1` (stereo unspecified), 44.3 µg/mL (≈ 128 µM); under `Cc1ccccc1NC(=O)CN1CCN(C(=O)c2ccco2)CC1`, greater than 49.1 µg/mL. Consider `CC(C)NC(=O)NC(=O)COC(=O)c1cc[n+]([O-])cc1`, for which the kinetic solubility was greater than 42.2 µg/mL. To `O=C(COC(=O)/C=C/c1cccc(Cl)c1)Nc1ccc(N2CCOCC2)cc1` belongs 3.2 µg/mL (≈ 7.98 µM); to `CN(C)S(=O)(=O)Nc1cccc(-c2cn3c(n2)SCC3)c1`, greater than 48.7 µg/mL; to `COc1cnc(-c2ccccc2)nc1OC`, 19.1 µg/mL (≈ 88.3 µM). Under `CN(Cc1ccccn1)Cc1nc(-c2ccc(Cl)cc2)no1` stands 35.5 µg/mL (≈ 113 µM); under `CC(OC(=O)CCc1c[nH]c2ccccc12)C(=O)c1ccccc1` (stereo unspecified), 12.7 µg/mL (≈ 39.5 µM); under `Cn1c(-c2ccccc2)cnc1NCc1cc(Cl)ccc1O`, 1.2 µg/mL (≈ 3.82 µM). Turning to `O=C(c1ccccc1)c1ncc[nH]1`, the kinetic solubility is greater than 25.8 µg/mL. Under `Clc1cccc(Cl)c1-c1noc(CN2CCOCC2)n1` stands 31.8 µg/mL (≈ 101 µM); under `O=C(O)C1C2CCC(O2)C1C(=O)Nc1ccc(F)c(Cl)c1` (stereo unspecified), greater than 47.1 µg/mL; under `CC(=O)OC1(c2ccccc2)CCN(C)CC1(C)C.Cl` (stereo unspecified), 44.2 µg/mL. For the molecule `COc1ccc(CN2CCN(C3CCC3)CC2CCO)cc1C` (stereo unspecified), the solubility (kinetic) amounted to 42.3 µg/mL (≈ 133 µM).

Regarding `O=C(/C=C/c1cc(Br)ccc1F)Nc1cccnc1`, the solubility (kinetic) was 2 µg/mL (≈ 6.23 µM). To `Cc1cc(C(=O)N2CCCc3ccccc32)ccc1[N+](=O)[O-]` belongs 34.7 µg/mL (≈ 117 µM); to `CC(Sc1ncnc2sccc12)C(=O)Nc1ccc(S(N)(=O)=O)cc1` (stereo unspecified), 8.7 µg/mL (≈ 22.1 µM). Under `COc1ccccc1Cc1nc(-c2cccnc2)no1` stands 31.9 µg/mL (≈ 119 µM); under `Cc1csc(SC(C)C(=O)Nc2ccccc2C)n1` (stereo unspecified), greater than 43.9 µg/mL. `Cc1cc(NC(=O)c2ccccc2)ccc1NC(=O)Cc1ccccc1` showed a solubility (kinetic) of 0.8 µg/mL (≈ 2.32 µM). To `CN(C)CCNC(=O)C(c1ccccc1)c1ccccc1` belongs 37.9 µg/mL (≈ 134 µM); to `O=C(CNC(=O)c1ccccc1F)NC1=NCCS1`, greater than 42.2 µg/mL; to `N#Cc1cccc(CS(=O)(=O)c2ccc(Cl)cc2)c1`, 38.2 µg/mL (≈ 131 µM).

The molecule `O=C1OCC2=C1C(c1ccccc1)CC(=O)N2c1ccc(F)cc1` (stereo unspecified) registered a kinetic solubility greater than 48.5 µg/mL. `c1ccc2c(c1)OCCc1c-2[nH]c2ccccc12`: the kinetic solubility was 3 µg/mL (≈ 12.8 µM).

Molecule `CCOC(=O)NC(=O)/C(C#N)=C/c1ccc(N(C)C)cc1` returned a kinetic solubility of 15.1 µg/mL (≈ 52.6 µM).

`Cc1ccc(C(=O)CSc2nc(C(C)C)nc3ccccc23)cc1` yielded a solubility (kinetic) of 0.6 µg/mL (≈ 1.78 µM). This solubility kinetic lies about 25-fold lower than the previous one. Molecule `CC(=O)N(C)c1ccc(NC(=O)N2CCOCC2)cc1` returned a kinetic solubility of 41.5 µg/mL (≈ 150 µM). Take `O=C(O)c1ccccc1NC(=O)C1C2CCC(O2)C1C(=O)O` (stereo unspecified): the solubility (kinetic) is greater than 45.8 µg/mL.

In turn, `CC(CCc1ccccc1)NC(=O)CCC1CCCC1` (stereo unspecified) returned a solubility (kinetic) of 14.5 µg/mL (≈ 53 µM). Under `O=C(NC(=S)NCc1ccc(Cl)cc1)c1ccco1` stands 10.6 µg/mL (≈ 36 µM); under `Cc1ccc(S(=O)(=O)N(C)C)cc1NC(=O)C1CCC1`, 39.7 µg/mL (≈ 134 µM); under `CC1CCCC(NC(=O)CN2C(=O)NC(Cc3c[nH]c4ccccc34)C2=O)C1C` (stereo unspecified), greater than 59.5 µg/mL. `COc1ccc(NC(=O)C2CCCN(c3nccc(C)n3)C2)cc1` (stereo unspecified) gave a kinetic solubility of 3.8 µg/mL (≈ 11.6 µM). Consider `Cn1cccc1/C=N\NC(=O)c1cncc(Br)c1`, for which the solubility (kinetic) is greater than 46.1 µg/mL. Take `CC1(NC(=O)CCc2nc3ccccc3c(=O)[nH]2)CCS(=O)(=O)C1` (stereo unspecified): the solubility (kinetic) is 49.2 µg/mL (≈ 141 µM).

The molecule `CCN(C(=O)Nc1cccc(Cl)c1)c1ccccc1` returned a kinetic solubility of 18.6 µg/mL (≈ 67.7 µM).
